Test results: ChEMBL document CHEMBL1126223, “Adenosine deaminase inhibitors. Synthesis and biological evaluation of C1' and nor-C1' derivatives of (+)-erythro-9-(2(S)-hydroxy-3(R)-nonyl)adenine” (J Med Chem, 1992)

Legend:
Adenosine deaminase [1] = biological target: T1, Adenosine deaminase (Bos taurus, UniProt P56658); assay: Binding affinity (Ki) at calf intestinal adenosine deaminase.
T1 sequence (P56658 whole entry): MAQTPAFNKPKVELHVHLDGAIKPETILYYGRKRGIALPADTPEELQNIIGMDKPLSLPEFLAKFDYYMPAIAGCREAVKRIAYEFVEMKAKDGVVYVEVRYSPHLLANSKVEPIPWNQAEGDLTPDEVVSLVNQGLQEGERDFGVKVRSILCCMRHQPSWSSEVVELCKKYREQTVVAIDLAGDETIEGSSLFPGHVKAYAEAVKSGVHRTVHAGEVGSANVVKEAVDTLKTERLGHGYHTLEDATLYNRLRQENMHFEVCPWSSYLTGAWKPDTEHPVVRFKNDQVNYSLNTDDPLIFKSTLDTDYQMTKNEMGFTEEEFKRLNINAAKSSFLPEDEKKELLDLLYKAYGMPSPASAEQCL

Adenosine deaminase [2] = biological target: T1, Adenosine deaminase; assay: Binding affinity (Ki) at calf intestinal Adenosine deaminase

Ki (Adenosine deaminase [1]) [nM]	Ki (Adenosine deaminase [2]) [nM]	Compound
600		CCCCCC[C@H](CBr)n1cnc2c(N)ncnc21
	2	CCCCCC[C@H]([C@H](C)O)n1cnc2c(N)ncnc21 [(+)-EHNA]
	1600	CCCCCC[C@H](CF)n1cnc2c(N)ncnc21
320		CCCCCC[C@H](CCl)n1cnc2c(N)ncnc21
1300		CCCCCC[C@H](CN=[N+]=[N-])n1cnc2c(N)ncnc21

The next lines start with the compound.

Compound	Ki (Adenosine deaminase [1]) [nM]	Ki (Adenosine deaminase [2]) [nM]
CCCCCC[C@@H]([C@@H](C)O)n1cnc2c(N)ncnc21 [EHNA]	4	
CCCCCC[C@H](CO)n1cnc2c(N)ncnc21		47
CCCCCC[C@H]([C@@H]1CO1)n1cnc2c(N)ncnc21		890
CCCCCC[C@@H]1[C@@H](O)C[n+]2cnc(N)c3ncn1c32	1000	
CCCCCC[C@H]([C@@H](O)CO)n1cnc2c(N)ncnc21		56
